This note sets out measurements from patent US8044035B2, “Pharmaceutical compositions of pyrimidine-2,4,6-triones” (priority 2004, dated 2011).

Where two headings read alike, the source gives them in different places.

The nature of data set [1]: Solubility of various trioxopyrimidines in the presence of HPβCD. The following applies: HPβCD solution, 37 °C, aqueous with cosolvent or surfactant or cyclodextrin, thermodynamic from solid, read-out: Concentration (solubility). In kind it is physicochemical. The procedure:
1.1 Weigh 20 mg of compound I. Add 2 ml of solution of HPβCD 200 mM. Stir for 24 h at 37° C. Filter in Millipore filter Millex HV 0.45 μm. The solution obtained after filtration contains the complex compound I-CD in solution.
1.2. Weigh 2.5 mg of compound I. Add 2 ml of solution of HPβCD 200 mM. Stir at 37° C. for 24 h or until compound I is completely dissolved. The solution obtained in this way contains the complex compound I-CD.
At the time of a complex formation, compound I, practically insoluble in water (<0.6 μg/ml, MW: 485), solubilizes dramatically. The increase in the solubility of compound I is thus proof of a complex formation between Compound I and the CD. Complex formation and achievement of the equilibrium is found at 20% after 1 day, 40% after 4 days, and 100% after 7 days. The solubility diagrams (FIG. 1) are carried out by adding an excess of compound I to the CD solutions of increasing concentration. After 7 days of stirring in thermostatically controlled baths at 37° C., these solutions are filtered and the solubilized compound I quantity is dosed by HPLC. The βCD and the γCD as well as their synthetic derivatives have allowed complexes with compound I to be formed. The β-CD and the HPβCD come from ROQUETTE (France), the RMβCD and the γCD have been supplied by Wacker (Germany).
The flasks containing compound I and the cyclodextrins are placed being stirred in thermostatically controlled baths at 37° C. for 7 days, so that the complexation balance is reached. After this time, the suspensions are filtered with the help of a milli-pore filter 0.22 μm in PVDF and the filtrate is dissolved in DMSO in the mobile phase to obtain concentration samples situating themselves on the calibrating line. They are then dosed thanks to the validated HPLC method, described below.
Solubility is investigated according to Examples 1 and 2.

Data set [2] is described as follows: Differential solubility in acetonitrile of free and complexed compound I. The format is physicochemical. The text has this: Compound I has different solubility when it is in the complex form or not. […] In these conditions the included drug remains trapped and becomes insoluble in the solvent. This technique of differential solubility between compound I in the free or in the complexed form can be applied to evaluate the percentage of complexation.

For the compound `O=C1NC(=O)C(c2ccc(Oc3ccc(Br)cc3)cc2)(N2CCN(c3ncccn3)CC2)C(=O)N1` [Compound V, 5-[4-(4-Bromo-phenoxy)-phenyl]-5-(4-pyrimidin-2-yl-piperazin-1-yl)-pyrimidine-2,4,6-trione], the solubility in data set [1] (HPβCD 10 mM) came to 800 µg/mL; in data set [1] (HPβCD 25 mM), 2400 µg/mL; in data set [1] (HPβCD 50 mM), 5400 µg/mL; in data set [1] (HPβCD 100 mM), 6600 µg/mL; in data set [1] (HPβCD 200 mM) it was 9900 µg/mL.

As to Hydroxypropyl β-cyclodextrin [HP-β-CD], the Solubility in acetonitrile entry in data set [2] is “insoluble”.

On to `O=C1NC(=O)C(c2ccc(Oc3ccc(Cl)c(Cl)c3)cc2)(N2CCN(c3ncccn3)CC2)C(=O)N1` [Compound IV, 5-[4-(3,4-Dichloro-phenoxy)-phenyl]-5-(4-pyrimidin-2-yl-piperazin-1-yl)-pyrimidine-2,4,6-trione], for which the solubility turned out to be 100 µg/mL in data set [1] (HPβCD 10 mM); 200 µg/mL in data set [1] (HPβCD 25 mM); 900 µg/mL in data set [1] (HPβCD 50 mM); 2700 µg/mL in data set [1] (HPβCD 100 mM); 7900 µg/mL in data set [1] (HPβCD 200 mM).

In the case of `O=C1NC(=O)C(c2ccc(Oc3ccccc3)cc2)(N2CCN(c3ncccn3)CC2)C(=O)N1` [Compound II, 5-(4-Phenoxy-phenyl)-5-(4-pyrimidin-2-yl-piperazin-1-yl)-pyrimidine-2,4,6-trione], the solubility in data set [1] (HPβCD 10 mM) was 1300 µg/mL; in data set [1] (HPβCD 25 mM), 3400 µg/mL; in data set [1] (HPβCD 50 mM), 3800 µg/mL; in data set [1] (HPβCD 100 mM), 5900 µg/mL; in data set [1] (HPβCD 200 mM), 9300 µg/mL.

For `O=C1NC(=O)C(c2ccc(Oc3ccc(Cl)cc3)cc2)(N2CCN(c3ncccn3)CC2)C(=O)N1` [Compound III, 5-[4-(4-Chloro-phenoxy)-phenyl]-5-(4-pyrimidin-2-yl-piperazin-1-yl)-pyrimidine-2,4,6-trione], the solubility in data set [1] (HPβCD 10 mM) came to 800 µg/mL; in data set [1] (HPβCD 25 mM), 2400 µg/mL; in data set [1] (HPβCD 50 mM), 3100 µg/mL; in data set [1] (HPβCD 100 mM), 6100 µg/mL; in data set [1] (HPβCD 200 mM) it was 9500 µg/mL.
